# Read-outs that look alike come from different tables or passages of the source.
# Columns and labels:
# [1] = system: THLE or HepG2 cells, isolated mitochondria, BSEP; settings: cited from earlier work
# [2] = plasma free fraction; cited from earlier work
# hLiMTs [3] = assay: Combined HCI (HCS) and cellular ATP 3D assay in hLiMTs; settings: for AC50 / minimal effective concentration: Homo sapiens; for DILI prediction hLiMTs (HCS-MEC): Microtissue model structural based (HCI), combined HCS and ATP, MEC < 25 × Cmax.tot cut-off; for hLiMTs <25x Avg Cmax ATP / hLiMTs <100x Avg Cmaxu ATP: ATP endpoint; for hLiMTs <25x Avg Cmax ATP / hLiMTs <25x Avg Cmax HCS / hLiMTs <25x Avg Cmax All: cut-off <25x Avg Cmax; for hLiMTs <100x Avg Cmaxu ATP / hLiMTs <100x Avg Cmaxu HCS / hLiMTs <100x Avg Cmaxu All: cut-off <100x Avg Cmaxu; for hLiMTs <25x Avg Cmax HCS / hLiMTs <100x Avg Cmaxu HCS: HCS endpoints; for hLiMTs <25x Avg Cmax All: all endpoints (ATP and HCS); for hLiMTs Cmax max All / hLiMTs Cmax min All / hLiMTs <10 uM All / hLiMTs <100x Avg Cmaxu All: all endpoints; for hLiMTs Cmax max All: Cmax max used; for hLiMTs Cmax min All: Cmax min used; for hLiMTs <10 uM All: cut-off <10 uM
# [4] = cited from earlier work; for DILI severity category (Chen et al. [2016]): LTKB DILIrank category; for DILI severity category (Chen et al. [2016]) / DILI severity category (Chen 2016): ref Chen et al. 2016; for DILI severity category (Chen 2016): human DILI classification, LTKB DILIrank
# HepaRG spheroids = assay: Combined HCI (HCS) and cellular ATP 3D assay in HepaRG spheroids; settings: for HepaRG <25x Avg Cmax ATP / HepaRG <100x Avg Cmaxu ATP: ATP endpoint; for HepaRG <25x Avg Cmax ATP / HepaRG <25x Avg Cmax HCS / HepaRG <25x Avg Cmax All: cut-off <25x Avg Cmax; for HepaRG <100x Avg Cmaxu ATP / HepaRG <100x Avg Cmaxu HCS / HepaRG <100x Avg Cmaxu All: cut-off <100x Avg Cmaxu; for HepaRG <25x Avg Cmax HCS / HepaRG <100x Avg Cmaxu HCS: HCS endpoints; for HepaRG <25x Avg Cmax All: all endpoints (ATP and HCS); for HepaRG Cmax max All / HepaRG Cmax min All / HepaRG <10 uM All / HepaRG <100x Avg Cmaxu All: all endpoints; for HepaRG Cmax max All: Cmax max used; for HepaRG Cmax min All: Cmax min used; for HepaRG <10 uM All: cut-off <10 uM; for AC50 / minimal effective concentration: Homo sapiens; for HepaRG <25x Avg Cmax ATP / HepaRG <100x Avg Cmaxu ATP / HepaRG <25x Avg Cmax HCS / HepaRG <100x Avg Cmaxu HCS / HepaRG <25x Avg Cmax All / HepaRG Cmax max All / HepaRG Cmax min All / HepaRG <10 uM All / HepaRG <100x Avg Cmaxu All / AC50 / minimal effective concentration: HepaRG; for DILI prediction HepaRG spheroids (HCS-MEC): Microtissue model structural based (HCI), combined HCS and ATP, MEC < 25 × Cmax.tot cut-off
# [5] = system: primary human hepatocytes, NIH3T3 fibroblasts, BSEP, CYP3A4; settings: cited from earlier work
# PHH = settings: cited from earlier work; for PHH/100xCmax, Proctor (2017) / PHH/100uM, Proctor (2017): 2D PHH, ATP, ref Proctor et al. 2017; for PHH/100xCmax, Proctor (2017): IC50 < 100 × Cmax.tot; for PHH/100uM, Proctor (2017): IC50 threshold 100 µM; for PHH ATP <100uM: In vitro Assay, ref Proctor 2017
# [6] = Plasma free fraction (fu) and unbound Cmax (Cmax,u); assay type: in vitro ADME, human; settings: unbound plasma Cmax
# Experimental: The prediction of DILI severity was evaluated further using the 3D combined HCI assays using plasma-free fraction. The majority of fu values were obtained from literature, when unavailable in-house prediction was utilised. Unbound plasma Cmax concentrations (Cmax,u) were derived by multiplying total plasma Cmax with the corresponding free fraction (fu) for each compound.
# [7] = system: HepG2 C3A spheroid, BSEP, Glu/Gal in HepG2 cells, bioactivation; settings: cited from earlier work; for Bayesian Machine Learning DILI prediction, Williams (2019): Bayesian modeling, ref Williams et al. 2019; for Bayesian Machine Learning: In vitro Assay, ref Williams 2019
# [8] = cited from earlier work; for Assigned DILI category: Chen et al. 2016 or literature alignment, ref Chen et al. 2016
# [9] = read-out: Human plasma Cmax; total plasma Cmax.tot, median of 9 literature references; cited from earlier work
# hLiMTs [10] = settings: cited from earlier work; for hLiMTs ATP <100uM: In vitro Assay, ref Proctor 2017; for hLiMTs/100xCmax, Proctor (2017) / hLiMTs/100uM, Proctor (2017): ATP, ref Proctor et al. 2017; for hLiMTs/100xCmax, Proctor (2017): IC50 < 100 × Cmax.tot; for hLiMTs/100uM, Proctor (2017): IC50 threshold 100 µM
# human hepatocytes = settings: cited from earlier work
# PHH spheroids = settings: cited from earlier work
# [11] = Modeled in vitro assays (cytotoxicity, mitochondrial dysfunction, BSEP), ref Aleo et al. 2019
# [12] = human DILI severity, ref Chen et al.
# [13] = In vitro Assay, ref Schadt 2015
compound,measurement,setting,value
CCN(CC)C(=O)/C(C#N)=C/c1cc(O)c(O)c([N+](=O)[O-])c1 [entacapone],Partition Hybrid HRM Score,"[1]; In vitro Assay, ref Aleo 2019",+VE
same,Ro2 Hybrid HRM Score,"[1]; In vitro Assay, ref Aleo 2019",+VE
same,"Partition Hybrid HRM Score ≥4, Aleo (2019)",[1]; [11],+VE (Partition Hybrid HRM Score ≥4)
same,"Partition Hybrid HRM Score ≥8, Aleo (2019)",[1]; [11],+VE (Partition Hybrid HRM Score ≥8)
same,"Rule of Two hybrid HRM Score ≥3, Aleo (2019)",[1]; [11],+VE (Rule of Two hybrid HRM Score ≥3)
same,"Rule of Two hybrid HRM Score ≥8, Aleo (2019)",[1]; [11],-VE
same,fu,[2],0.020
same,AC50,hLiMTs [3]; read-out: ATP endpoint AC50,150 µM
same,minimal effective concentration,hLiMTs [3]; read-out: ATP endpoint MEC,125 µM
same,AC50,hLiMTs [3]; read-out: HCS endpoint AC50,139 µM
same,minimal effective concentration,hLiMTs [3]; read-out: HCS endpoint MEC,88.8 µM
same,DILI prediction hLiMTs (HCS-MEC),hLiMTs [3],+VE (MEC < 25 × Cmax.tot cut-off)
same,hLiMTs <25x Avg Cmax ATP,hLiMTs [3],-ve
same,hLiMTs <100x Avg Cmaxu ATP,hLiMTs [3],-ve
same,hLiMTs <25x Avg Cmax HCS,hLiMTs [3],+ve
same,hLiMTs <100x Avg Cmaxu HCS,hLiMTs [3],-ve
same,hLiMTs <25x Avg Cmax All,hLiMTs [3],+ve
same,hLiMTs Cmax max All,hLiMTs [3],+ve
same,hLiMTs Cmax min All,hLiMTs [3],-ve
same,hLiMTs <10 uM All,hLiMTs [3],-ve
same,hLiMTs <100x Avg Cmaxu All,hLiMTs [3],-ve
same,DILI severity category (Chen et al. [2016]),[4],Less
same,DILI severity category (Chen 2016),[4],Less
same,DILI severity category,[4]; [12],Less
same,"DILI +VE (5-8), DILI -VE (-4)",[4]; ref Chen 2016,+VE
same,DILI severity category,[4]; ref Chen 2016,vLess-DILI-Concern
same,HepaRG <25x Avg Cmax ATP,HepaRG spheroids,+ve
same,HepaRG <100x Avg Cmaxu ATP,HepaRG spheroids,-ve
same,HepaRG <25x Avg Cmax HCS,HepaRG spheroids,+ve
same,HepaRG <100x Avg Cmaxu HCS,HepaRG spheroids,-ve
same,HepaRG <25x Avg Cmax All,HepaRG spheroids,+ve
same,HepaRG Cmax max All,HepaRG spheroids,+ve
same,HepaRG Cmax min All,HepaRG spheroids,+ve
same,HepaRG <10 uM All,HepaRG spheroids,-ve
same,HepaRG <100x Avg Cmaxu All,HepaRG spheroids,-ve
same,AC50,HepaRG spheroids; read-out: ATP endpoint AC50,115 µM
same,minimal effective concentration,HepaRG spheroids; read-out: ATP endpoint MEC,45.5 µM
same,AC50,HepaRG spheroids; read-out: HCS endpoint AC50,129 µM
same,minimal effective concentration,HepaRG spheroids; read-out: HCS endpoint MEC,45.4 µM
same,DILI prediction HepaRG spheroids (HCS-MEC),HepaRG spheroids,+VE (MEC < 25 × Cmax.tot cut-off)
same,"DILI in vitro assay prediction, Schadt (2015)","[5]; BSEP & Metabolism based, ref Schadt et al. 2015",-VE
same,Cellular toxicity (3T3 cells),[5]; [13],-VE
same,Combined Assay,[5]; [13],-VE
same,GSH adduct HML,[5]; [13],-VE
same,Hepatocyte cellular toxicity,[5]; [13],-VE
same,MitoTox 3T3,[5]; [13],-VE
same,TDI CYP3A4,[5]; [13],-VE
same,hBSEP inhibition,[5]; [13],-VE
same,"PHH/100xCmax, Proctor (2017)",PHH,+VE (IC50 < 100 × Cmax.tot)
same,"PHH/100uM, Proctor (2017)",PHH,-VE
same,PHH ATP <100uM,PHH,+VE (IC50 threshold of 100 µM)
same,"Human plasma Cmax,u",[6],72 nM
same,"Bayesian Machine Learning DILI prediction, Williams (2019)",[7],-VE
same,Bayesian Machine Learning,[7],-VE
same,Assigned DILI category,[8],2
same,In vivo DILI,[8]; ref Aleo 2019,+VE
same,In vivo DILI,[8]; ref Proctor 2017,-VE
same,In vivo DILI,[8]; ref Schadt 2015,-VE
same,In vivo DILI,[8]; ref Williams 2019,-VE
same,Cmax,[9],3590 nM
same,hLiMTs ATP <100uM,hLiMTs [10],-VE
same,"hLiMTs/100xCmax, Proctor (2017)",hLiMTs [10],+VE (IC50 < 100 × Cmax.tot)
same,"hLiMTs/100uM, Proctor (2017)",hLiMTs [10],-VE
CC(C)(C)NCC(O)COc1cccc2c1CC(O)C(O)C2 (stereo not drawn) [nadolol],fu,[2],0.700
same,Structural based (HCI),"human hepatocytes; In vitro Assay, ref Xu 2008",-VE
same,"DILI in vitro assay prediction, Xu (2008)","human hepatocytes; Structural based (HCI), human hepatocytes, ref Xu et al. 2008",-VE
same,DILI prediction hLiMTs (HCS-MEC),hLiMTs [3],-VE
same,hLiMTs <25x Avg Cmax ATP,hLiMTs [3],-ve
same,hLiMTs <100x Avg Cmaxu ATP,hLiMTs [3],-ve
same,hLiMTs <25x Avg Cmax HCS,hLiMTs [3],-ve
same,hLiMTs <100x Avg Cmaxu HCS,hLiMTs [3],-ve
same,hLiMTs <25x Avg Cmax All,hLiMTs [3],-ve
same,hLiMTs Cmax max All,hLiMTs [3],-ve
same,hLiMTs Cmax min All,hLiMTs [3],-ve
same,hLiMTs <10 uM All,hLiMTs [3],-ve
same,hLiMTs <100x Avg Cmaxu All,hLiMTs [3],-ve
same,DILI severity category (Chen et al. [2016]),[4],Ambiguous
same,DILI severity category (Chen 2016),[4],Ambiguous
same,DILI severity category,[4]; [12],Ambiguous
same,"DILI +VE (5-8), DILI -VE (-4)",[4]; ref Chen 2016,-VE
same,DILI severity category,[4]; ref Chen 2016,Ambiguous DILI-concern
same,HepaRG <25x Avg Cmax ATP,HepaRG spheroids,-ve
same,HepaRG <100x Avg Cmaxu ATP,HepaRG spheroids,-ve
same,HepaRG <25x Avg Cmax HCS,HepaRG spheroids,-ve
same,HepaRG <100x Avg Cmaxu HCS,HepaRG spheroids,-ve
same,HepaRG <25x Avg Cmax All,HepaRG spheroids,-ve
same,HepaRG Cmax max All,HepaRG spheroids,-ve
same,HepaRG Cmax min All,HepaRG spheroids,-ve
same,HepaRG <10 uM All,HepaRG spheroids,-ve
same,HepaRG <100x Avg Cmaxu All,HepaRG spheroids,-ve
same,DILI prediction HepaRG spheroids (HCS-MEC),HepaRG spheroids,-VE
same,"PHH/100xCmax, Proctor (2017)",PHH,-VE
same,"PHH/100uM, Proctor (2017)",PHH,-VE
same,PHH ATP <100uM,PHH,-VE
same,hLiMTs ATP <20 x Cmax,"PHH spheroids; In vitro Assay, ref Vorrink 2018",-VE
same,"DILI in vitro assay prediction, Vorrink (2018)","PHH spheroids; PHH spheroids, ATP, 14 days, IC20 < 20 × Cmax.tot, ref Vorrink et al. 2018",-VE
same,"Human plasma Cmax,u",[6],294 nM
same,"Bayesian Machine Learning DILI prediction, Williams (2019)",[7],-VE
same,Bayesian Machine Learning,[7],-VE
same,Assigned DILI category,[8],1
same,In vivo DILI,[8]; ref Proctor 2017,-VE
same,In vivo DILI,[8]; ref Vorrink 2018,-VE
same,In vivo DILI,[8]; ref Williams 2019,-VE
same,In vivo DILI,[8]; ref Xu 2008,-VE
same,Cmax,[9],420 nM
same,hLiMTs ATP <100uM,hLiMTs [10],-VE
same,"hLiMTs/100xCmax, Proctor (2017)",hLiMTs [10],-VE
same,"hLiMTs/100uM, Proctor (2017)",hLiMTs [10],-VE

# From paper PMC7395068, “The evolution of strategies to minimise the risk of human drug-induced liver injury (DILI) in drug discovery and development” (Archives of Toxicology, 2020)
